solubility (mole fraction) (in n-hexane, 293.15 K)	solubility (mole fraction) (in n-hexane, 298.15 K)	solubility (mole fraction) (in n-hexane, 303.15 K)	solubility (mole fraction) (in n-hexane, 310.15 K)	solubility (mole fraction) (in n-hexane, 315.15 K)	solubility (mole fraction) (in n-octanol, 293.15 K)	solubility (mole fraction) (in n-octanol, 298.15 K)	solubility (mole fraction) (in n-octanol, 303.15 K)	solubility (mole fraction) (in n-octanol, 310.15 K)	solubility (mole fraction) (in n-octanol, 315.15 K)	Compound
0.000225	0.000289	0.000382	0.000537	0.000673	0.0124	0.0139	0.0163	0.0194	0.0224	CCc1ccc(N=C2SCC3CCCN2C3)cc1 (stereo not given)
0.000248	0.000286	0.000339	0.000402	0.00046	0.0118	0.0132	0.0146	0.0171	0.0189	FC(F)(F)c1ccc(N=C2SCC3CCCN2C3)cc1 (stereo not given)
0.0033	0.00465	0.00654	0.0104	0.0135	0.145	0.157	0.171	0.193	0.209	Cc1ccc(N=C2SCC3CCCN2C3)cc1 (stereo not given)
0.00135	0.00158	0.00195	0.00246	0.00288	0.143	0.154	0.164	0.182	0.194	CC(C)c1ccc(N=C2SCC3CCCN2C3)cc1 (stereo not given)
0.000144	0.000176	0.000215	0.00028	0.000344	0.0075	0.0093	0.0118	0.0156	0.0202	CC(=O)c1ccc(N=C2SCC3CCCN2C3)cc1 (stereo not given)
0.000223	0.000271	0.000337	0.000422	0.000523	0.0087	0.0107	0.0131	0.0166	0.0202	N#Cc1ccc(N=C2SCC3CCCN2C3)cc1 (stereo not given)
0.0015	0.00187	0.00224	0.00294	0.00359	0.0245	0.0296	0.0354	0.0469	0.0567	Fc1ccc(N=C2SCC3CCCN2C3)cc1 (stereo not given)
7.1e-05	8.71e-05	0.000106	0.000134	0.000161	0.00305	0.00377	0.00454	0.00605	0.00736	Cc1ccc(N=C2SCC3CCCN2C3)cc1Cl (stereo not given)

Reference: BigSolDB 2.1
